Results as given in patent US20160008298A1, “XANTHOHUMOL-BASED COMPOUNDS AND COMPOSITIONS THEREOF, AND METHODS OF MAKING AND USING THE SAME” (Oregon State University, priority 2014, published 2016).

Columns and labels:
[1] = test system: C2C12 skeletal muscle cells; assay: Seahorse OCR and ECAR measurements after oligomycin; type: cell-based, mouse; details: for increase in oxygen consumption: as summarised in Example 2
Experimental: OCR and ECAR measurements were performed with a Seahorse XF 24 Analyzer (Seahorse Bioscience). Cells were plated 24 hours prior to measurements at a density of 40,000 cells per well within growth medium in a 24-well plate. The cells were then allowed to adhere for 24 hours (37° C., 5% CO2). Prior to the assay, the cells were washed with freshly prepared running media consisting of Seahorse XF Assay medium (Seahorse Bioscience, North America, USA), 10 mM glucose and 1 mM sodium pyruvate. The pH of the medium was adjusted to 7.4 with 1 M NaOH. The cells were then equilibrated for one hour at 37° C. without CO2. The compounds were injected during the assay; OCR and ECAR were measured at 9 minutes measurement intervals. The solutions of oligomycin, FCCP, XN, DXN and TXN were freshly prepared in running medium. The final concentrations in the wells were: 1 μM for oligomycin, 5 μM for XN, DXN and TXN and 2, 5, 8, 25 μM for the dose response experiments with DXN. Ethanol was added to the control wells not to exceed a final concentration of 0.1%. All the compounds were tested in quadruplicate on the 24-well plate. XN is highly non-polar and FBS can be used to dissolve XN. Thus, XN, DXN and TXN were first dissolved in ethanol and the resulting solutions were diluted 100-fold in running medium containing 1% of FBS. After a further 10-fold dilution into the media in wells, only 0.1% of FBS was present during OCR measurements. […] The concentration of oligomycin and the cell density used were selected based on preliminary experiments.
Seahorse data were analyzed in SAS 9.2 (SAS Institute Inc., Cary, N.C.). To show a consistent baseline, OCR values (in pmol/min/mg protein) and ECAR values (in mpH/min/mg protein) for each value were divided prior to statistical analysis by the average of the four pre oligomycin treatment values (0, 8, 17, and 25 minutes) for the corresponding well and are shown as % pre oligomycin values. The original scale for OCR and for ECAR values was utilized for the OCR/ECAR ratio (in pMol/mpH). To account for repeated measures within wells over time, a repeated-measures-in-time design using ANOVA procedures in PROC MIXED was used. Fixed effects in the model were treatment (control, 2 μM DXN, 5 μM XN, 5 μM DXN, and 5 μM TXN for the compound study and control, 2, 5, 8, and 25 μM DXN for the DXN dosage study), time (0, 8, 17, 25, 34, 43, 52, 60, 69, 78, 86, and 95 minutes), and their interaction. The random effect was the experiment (5 experiments for the compound study and 3 experiments for the DXN dosage study). To account for repeated measures within wells over time, a first order homogeneous variance-covariance matrix [AR(1)] was fitted for each well. Using the ESTIMATE statement, a priori contrasts were constructed by comparing the changes in compound treated cells from the last two time points prior to compound treatment (average 52 and 60 minutes) to the changes in control cells during the same time period. This was done for each compound and dosage for 69, 78, 86, and 95 minutes separately and for all four time points combined. […] A P-value of 0.05 was considered statistically significant and is shown as star in the graphs (FIG. 5).

[2] = test system: mitochondrial transmembrane potential in C2C12 cells; assay: JC-1 assay of mitochondrial transmembrane potential; type: cell-based, mouse; details: 5 μM, 8 μM, 25 μM and 50 μM; one hour of exposure
Experimental: Cells were plated at a density of 80,000 cells per well in black 96-well plates and incubated for 24 hours at 37° C. (5% CO2). They were then treated with fresh solutions of various concentrations of XN, DXN or TXN in growth medium. The final concentrations of XN, DXN, TXN were 1, 2, 5, 8, 25, 50 μM, all in quadruplicate wells, in the 96-well plates. After one hour of exposure to the compounds at 37° C. (5% CO2), the cells were treated with 10 μL of a JC-1 staining solution (freshly prepared by diluting 11 fold 100 μL of the JC-1 agent furnished from the assay kit). After 15 to 30 minutes of incubation (37° C., 5% CO2), the cells were washed three times with the Cell-Based Assay Buffer (prepared by dissolving three buffer tablets of the kit in 300 mL of MilliQ water). The plates were then analyzed by a fluorescent plate reader (SpectraMax Gemini XS) at 560-595 nm and 485-535 nm.
JC-1 can selectively enter into mitochondria and reversibly change color from green to red as the membrane potential increases. In healthy cells with high mitochondrial transmembrane potential, JC-1 spontaneously forms complexes known as J-aggregates with intense red fluorescence with excitation and emission at 560 nm and 595 nm, respectively. […] The ratio of fluorescence intensity of J-aggregates to fluorescence intensity of J-monomers can be used as an indicator of cell heath or mitochondrial state. […] A decrease in the values of the ratios compared to the control is indicative of an alteration in the potential across the mitochondrial membrane.

C2C12 mouse myocytes = assay: Cellular uptake by LC-MS/MS; type: in vitro ADME; details: 5 μM, one hour
Experimental: Cellular uptake investigations were performed using C2C12 mouse myocytes. Cells were cultured in 75 cm2 flasks using Dulbecco's Modified Eagle Medium (DMEM) obtained from Sigma-Aldrich, which was supplemented with 10% Fetal Bovine serum (FBS) and 1% penicillin/streptomycin solution (PS). Cultures were maintained in an incubator at 37° C. and 5% CO2.
Uptake comparisons were conducted by seeding three 12-well plates with 1 mL of C2C12 cells in suspension with a density of 100,000 cells/mL, which were then incubated until confluent. Four treatment groups were compared, including XN, DXN, TXN and a no compound control. Each compound was tested in quadruplicate in the presence of cells and in medium not exposed to cells. Medium not exposed to cells was examined for compound concentration to help account for protein binding in medium. Confluent cells were subsequently treated with fresh DMEM containing 1% FBS, 1% PS, as well as 5 μM XN, DXN, or TXN and incubated at 37° C. and 5% CO2 for one hour. Following incubation, cell medium was collected and the cells were washed once using Hanks Balanced Salt Solution (HBSS). HBSS was then aspirated, and 0.5 mL of cell extraction buffer (50% methanol:ethanol, v:v) was added to each well and the plates were covered with a plastic adhesive plate cover. The plates were placed in a freezer and maintained at −80° C. for 24 hours. After freezing, the plates were removed from the freezer and the cells were removed from the wells using a cell scraper and collected. An additional 0.5 mL of extraction buffer was added to each well as a rinse, which was collected and added to the cell extracts. […]
All cell culture samples were analyzed by LC-MS/MS using an Applied Biosystems API 4000 Q-trap triple quadrupole mass spectrometer. […] Once concentrations could be determined, mass balance of XN, DXN or TXN was calculated based on the average total volume of the sample, approximately 0.995 mL for cell medium, and 0.75 mL for cellular extracts.

[3] = Mouse feeding experiment, weight gain; type: in vivo; details: 30 mg/kg/day in high fat diet, 12 weeks
Experimental: Over the course of 12 weeks, mouse weights were recorded once per week and the average weights were calculated for each group.

C57BL6/J mice = assay: Plasma metabolites at sacrifice; type: in vivo, mouse; details: 14 weeks, 30 mg/kg/day; for Mean fasting plasma glucose at time of sacrifice: 6 hour fast, control 158.2±29.6; for Insulin level average: control 1.01±0.44; for Average plasma triglycerides: control 87.5±6.6; for Plasma cholesterol average: control 173.9±31.9
Experimental: The total number of C57BL6/J mice was 48, with 12 mice belonging to each of 4 treatment groups. Duration of the feeding was 14 weeks. Mouse feed contained high fat content (60% of kCal), and was supplemented with XN, DXN, or TXN in the treatment groups. XN, DXN and TXN content within the mouse diet were designed to deliver a dose of 30 mg/kg/day body weight. Food intake was measured three times per week by weighing the food pellet before placement in the cage, and at the time of feed changing by weighing uneaten food. Mice were unrestricted in dietary intake, being allowed to eat as much food as desired. Mice were weighed once per week. Groups included low dose (30 mg/kg) XN, DXN, TXN and no supplement control. Mice were maintained in accordance with the Oregon State University Institutional Animal Care and Use Committee (IACUC) regulations. One mouse was maintained on a standard AIN-93M chow diet to be used as a healthy reference during glucose tolerance assays.
Plasma was collected at sacrifice (14 weeks) to analyze for plasma glucose, triglycerides, cholesterol and insulin. Plasma glucose was assayed using the Wako Autokit Glucose kit (Wako Pure Chemical Industries, Ltd.). […] Samples were allowed to incubate for 5 minutes, and then the absorbance of each well was measured at a wavelength of 505 nm using a SpectraMax 190 spectrophotometer. Glucose was calculated using a 6-point calibration curve containing concentrations of 0, 25, 50, 100, 200 and 400 mg/dL.
Plasma triglycerides were measured using the Infinity™ Triglycerides Reagent kit (Thermo Fisher Scientific, Inc.). […] Absorbance at 500 nm was then measured on a SpectraMax 190 spectrophotometer. Triglyceride levels were calculated from a 6-point calibration curve.
Plasma cholesterol was measured using the Infinity™ Cholesterol Liquid Stable Reagent assay kit (Thermo Fisher Scientific, Inc.). Five μL of plasma from each sample was combined with 195 μL of Infinity™ Cholesterol Liquid Stable Reagent (50 mM phosphate buffer (pH 6.7) containing 200 U/L cholesterol oxidase, 500 U/L cholesterol esterase, 300 U/L peroxidase (horseradish), 0.25 mM 4-aminoantipyrine, 10 mM hydroxybenzoic acid) and incubated for 5 minutes at room temperature. Cholesterol absorbance was then measured using a SpectraMax 190 spectrophotometer at 500 nm, and concentrations were calculated using a 6-point calibration curve.
Plasma insulin levels were assayed using the ALPCO 80-INSMS-E01 mouse insulin enzyme-linked immunosorbent assay (ELISA) kit (ALPCO diagnostics, Salem, N.H.). Ten μL of plasma from each sample was loaded into a 96-well plate (provided in kit) and combined with 75 μL of provided conjugate buffer. The plate was placed on a shaker and incubated for 2 hours at room temperature while shaking at 800 rpm. The buffer was then discarded and the wells were washed 5 times with 100 μL of provided wash buffer. […] After incubation, 100 μL of stop solution was added to each well, and the plate was analyzed on a SpectraMax 190 spectrophotometer at 450 nm. Sample insulin concentrations were calculated using a 6-point calibration curve.

[4] = 5 μM, after oligomycin 1 μM, compound study, five independent experiments
[5] = 5 μM, oligomycin 1 μM, compound study, average of five independent experiments

Compound | decrease in ECAR [1, 4] [%] | increase in oxygen consumption ([1]; 5 μM) | increase in OCR in the presence of oligomycin [1, 5] [%] | effect on OCR at higher concentrations [1] | ratio of aggregates to monomers (JC-1) versus control [2] | cellular uptake (of total amount of compound applied to cells) (C2C12 mouse myocytes) | weight gain compared to the control [3] | Mean fasting plasma glucose at time of sacrifice (C57BL6/J mice) [mg/dL] | Insulin level average (C57BL6/J mice) [ng/mL] | Average plasma triglycerides (C57BL6/J mice) [mg/dL] | Plasma cholesterol average (C57BL6/J mice) [mg/dL] | further results
COc1cc(O)c(CCC(C)C)c(O)c1C(=O)CCc1ccc(O)cc1 [TXN, tetrahydroxanthohumol] | 27.5±2.0 | 50% | 56.8±6.9 | tended to inhibit OCR | changed significantly from the control values | 6.9% | most dramatic reduction in weight gain compared to the control | 116.1 ± 24.1 | 0.500 ± 0.24 | 76.4 ± 7.8 | 160.7 ± 30.7 | 
COc1cc(O)c(CC=C(C)C)c(O)c1C(=O)CCc1ccc(O)cc1 [DXN, α,β-dihydroxanthohumol] | 17.8±2.0 | 20% | 28.7±6.9 |  | changed significantly from the control values | 7.8% | followed DXN, then XN | 150.5 ± 45.0 | 1.04 ± 0.77 | 84.5 ± 4.9 | 167.2 ± 33.3 | decrease in ECAR ([1]; 2 μM, DXN dosage study): 8.0±2.4%; increase in OCR in the presence of oligomycin ([1]; 2 μM, DXN dosage study, three independent experiments): 6±6%; decrease in ECAR ([1]; 2 μM, after oligomycin 1 μM, compound study, five independent experiments): 5.9±2.0%; increase in OCR in the presence of oligomycin ([1]; 2 μM, oligomycin 1 μM, compound study, average of five independent experiments): 8.9±7.0%; decrease in ECAR ([1]; 5 μM, DXN dosage study): 25.2±2.3%; increase in OCR in the presence of oligomycin ([1]; 5 μM, DXN dosage study, three independent experiments): 30.8±6.0%; decrease in ECAR ([1]; 8 μM, DXN dosage study): 31.6±2.3%; increase in OCR in the presence of oligomycin ([1]; 8 μM, DXN dosage study, three independent experiments): 55.1±6.0%; OCR response in the presence of oligomycin ([1]; 25 μM, DXN dosage study): initial increase in the OCR that was immediately followed by a sharp decrease; decrease in ECAR ([1]; 25 μM, DXN dosage study): 49.8±2.3%
COc1cc(O)c(CC=C(C)C)c(O)c1C(=O)/C=C/c1ccc(O)cc1 [XN, xanthohumol] | 4.7±2.0 | approximately 10% | 11.3±6.9 | tended to inhibit OCR | changed significantly from the control values | approximately 6.6% | followed DXN, then XN | 169.1 ± 28.7 | 1.19 ± 0.68 | 80.7 ± 4.2 | 196.2 ± 28.3 | 
